Experimental data taken from the NIST ThermoML archive (doi:10.1016/j.fluid.2012.11.006).
Where “and” joins values, the source holds several entries; their conditions need not be identical. Equal entries are not always repeated. ± gives the expanded uncertainty stated by the source.

Tests used:
[1] = molar enthalpy of transition or fusion; conditions: DSC
[2] = Molar enthalpy of transition or fusion; conditions: Crystal; DSC
[3] = molar heat capacity at constant pressure; conditions: 101.33 kPa, Crystal, Flow calorimetry
[4] = molar enthalpy of vaporization or sublimation; conditions: 298.15 K; Crystal; Torsion-effucion

O=C(O)c1cc(Br)cc(Br)c1 [3,5-dibromobenzoic acid]
Conditions | molar enthalpy of transition or fusion | vapor or sublimation pressure
355.2 K, Crystal, Torsion effusion method | – | 1.9e-05 ± 2e-05 kPa
358 K, Crystal, Torsion effusion method | – | 2.8e-05 ± 2e-05 kPa
359 K, Crystal, Torsion effusion method | – | 2.8e-05 ± 2e-05 kPa
360.5 K, Crystal, Torsion effusion method | – | 3.8e-05 ± 2e-05 kPa
362.5 K, Crystal, Torsion effusion method | – | 4.7e-05 ± 2e-05 kPa
363.8 K, Crystal, Torsion effusion method | – | 4.7e-05 ± 2e-05 kPa
365.2 K, Crystal, Torsion effusion method | – | 5.7e-05 ± 2e-05 kPa
365.6 K, Crystal, Torsion effusion method | – | 5.7e-05 ± 2e-05 kPa
366.4 K, Crystal, Torsion effusion method | – | 6.6e-05 ± 2e-05 kPa
366.8 K, Crystal, Torsion effusion method | – | 7.6e-05 ± 2.1e-05 kPa
369.2 K, Crystal, Torsion effusion method | – | 9.5e-05 ± 2.1e-05 kPa
371 K, Crystal, Torsion effusion method | – | 0.000114 ± 2.1e-05 kPa
371.2 K, Crystal, Torsion effusion method | – | 0.000114 ± 2.1e-05 kPa
371.3 K, Crystal, Torsion effusion method | – | 0.000114 ± 2.1e-05 kPa
372.5 K, Crystal, Torsion effusion method | – | 0.000133 ± 2.2e-05 kPa
373 K, Crystal, Torsion effusion method | – | 0.000133 ± 2.2e-05 kPa
373.7 K, Crystal, Torsion effusion method | – | 0.000133 ± 2.2e-05 kPa
374 K, Crystal, Torsion effusion method | – | 0.000152 ± 2.2e-05 kPa
375.6 K, Crystal, Torsion effusion method | – | 0.000189 ± 2.3e-05 kPa
376 K, Crystal, Torsion effusion method | – | 0.000189 ± 2.3e-05 kPa
377 K, Crystal, Torsion effusion method | – | 0.000208 ± 2.4e-05 kPa
377.9 K, Crystal, Torsion effusion method | – | 0.000227 ± 2.4e-05 kPa
378.2 K, Crystal, Torsion effusion method | – | 0.000208 ± 2.4e-05 kPa
380.2 K, Crystal, Torsion effusion method | – | 0.000284 ± 2.7e-05 kPa
380.4 K, Crystal, Torsion effusion method | – | 0.000284 ± 2.7e-05 kPa
381.3 K, Crystal, Torsion effusion method | – | 0.000303 ± 2.7e-05 kPa
381.5 K, Crystal, Torsion effusion method | – | 0.000303 ± 2.7e-05 kPa
383.2 K, Crystal, Torsion effusion method | – | 0.000398 ± 3.2e-05 kPa
383.7 K, Crystal, Torsion effusion method | – | 0.000398 ± 3.2e-05 kPa
384.1 K, Crystal, Torsion effusion method | – | 0.000379 ± 3.1e-05 kPa
384.3 K, Crystal, Torsion effusion method | – | 0.000436 ± 3.3e-05 kPa
386.3 K, Crystal, Torsion effusion method | – | 0.000474 ± 3.5e-05 kPa
386.6 K, Crystal, Torsion effusion method | – | 0.000531 ± 3.8e-05 kPa
386.9 K, Crystal, Torsion effusion method | – | 0.000531 ± 3.8e-05 kPa
387.7 K, Crystal, Torsion effusion method | – | 0.000531 ± 3.8e-05 kPa
389.8 K, Crystal, Torsion effusion method | – | 0.000758 ± 5.1e-05 kPa
390.1 K, Crystal, Torsion effusion method | – | 0.00072 ± 4.8e-05 kPa
390.8 K, Crystal, Torsion effusion method | – | 0.000796 ± 5.3e-05 kPa
391.1 K, Crystal, Torsion effusion method | – | 0.000739 ± 4.9e-05 kPa
393.1 K, Crystal, Torsion effusion method | – | 0.000947 ± 6.1e-05 kPa
393.7 K, Crystal, Torsion effusion method | – | 0.000947 ± 6.1e-05 kPa
394 K, Crystal, Torsion effusion method | – | 0.001004 ± 6.5e-05 kPa
395.6 K, Crystal, Torsion effusion method | – | 0.001213 ± 7.7e-05 kPa
395.9 K, Crystal, Torsion effusion method | – | 0.001175 ± 7.5e-05 kPa
500.1 K, Liquid, isothermal thermogravimetric | – | 1.128 ± 0.081 kPa
500.1 K, Liquid, non-isothermal thermogravimetric | – | 1.173 ± 0.084 kPa
500.7 K, Liquid, non-isothermal thermogravimetric | – | 1.118 ± 0.11 kPa
501.1 K, Liquid, isothermal thermogravimetric | – | 1.191 ± 0.062 kPa
501.1 K, Liquid, non-isothermal thermogravimetric | – | 1.135 ± 0.12 kPa
501.3 K, Liquid, non-isothermal thermogravimetric | – | 1.141 ± 0.099 kPa
501.6 K, Liquid, isothermal thermogravimetric | – | 1.21 ± 0.081 kPa
502.2 K, Liquid, isothermal thermogravimetric | – | 1.21 ± 0.082 kPa
504 K, Liquid, non-isothermal thermogravimetric | – | 1.377 ± 0.1 kPa
504.6 K, Liquid, isothermal thermogravimetric | – | 1.376 ± 0.081 kPa
504.9 K, Liquid, non-isothermal thermogravimetric | – | 1.33 ± 0.1 kPa
505.1 K, Liquid, isothermal thermogravimetric | – | 1.405 ± 0.082 kPa
505.2 K, Liquid, non-isothermal thermogravimetric | – | 1.358 ± 0.1 kPa
505.4 K, Liquid, isothermal thermogravimetric | – | 1.401 ± 0.089 kPa
505.6 K, Liquid, non-isothermal thermogravimetric | – | 1.401 ± 0.1 kPa
506.3 K, Liquid, isothermal thermogravimetric | – | 1.426 ± 0.091 kPa
508.2 K, Liquid, non-isothermal thermogravimetric | – | 1.617 ± 0.11 kPa
508.8 K, Liquid, isothermal thermogravimetric | – | 1.646 ± 0.082 kPa
508.9 K, Liquid, isothermal thermogravimetric | – | 1.615 ± 0.082 kPa
509 K, Liquid, non-isothermal thermogravimetric | – | 1.592 ± 0.11 kPa and 1.624 ± 0.11 kPa
509.2 K, Liquid, isothermal thermogravimetric | – | 1.652 ± 0.083 kPa
509.4 K, Liquid, non-isothermal thermogravimetric | – | 1.653 ± 0.11 kPa
510.3 K, Liquid, isothermal thermogravimetric | – | 1.637 ± 0.096 kPa
512.3 K, Liquid, non-isothermal thermogravimetric | – | 1.893 ± 0.1 kPa
512.9 K, Liquid, isothermal thermogravimetric | – | 1.908 ± 0.1 kPa
513 K, Liquid, isothermal thermogravimetric | – | 1.9 ± 0.1 kPa
513.1 K, Liquid, isothermal thermogravimetric | – | 1.909 ± 0.1 kPa
513.1 K, Liquid, non-isothermal thermogravimetric | – | 1.85 ± 0.11 kPa
513.3 K, Liquid, non-isothermal thermogravimetric | – | 1.802 ± 0.11 kPa
513.5 K, Liquid, non-isothermal thermogravimetric | – | 1.882 ± 0.12 kPa
514.4 K, Liquid, isothermal thermogravimetric | – | 1.98 ± 0.1 kPa
516.3 K, Liquid, non-isothermal thermogravimetric | – | 2.222 ± 0.12 kPa
516.7 K, Liquid, isothermal thermogravimetric | – | 2.189 ± 0.089 kPa
517 K, Liquid, isothermal thermogravimetric | – | 2.217 ± 0.091 kPa
517.1 K, Liquid, isothermal thermogravimetric | – | 2.176 ± 0.089 kPa
517.1 K, Liquid, non-isothermal thermogravimetric | – | 2.15 ± 0.13 kPa and 2.187 ± 0.13 kPa
517.5 K, Liquid, non-isothermal thermogravimetric | – | 2.228 ± 0.12 kPa
518.2 K, Liquid, isothermal thermogravimetric | – | 2.223 ± 0.12 kPa
520.1 K, Liquid, non-isothermal thermogravimetric | – | 2.546 ± 0.12 kPa
520.6 K, Liquid, isothermal thermogravimetric | – | 2.505 ± 0.11 kPa
520.9 K, Liquid, isothermal thermogravimetric | – | 2.553 ± 0.11 kPa
521 K, Liquid, non-isothermal thermogravimetric | – | 2.478 ± 0.12 kPa
521.2 K, Liquid, isothermal thermogravimetric | – | 2.586 ± 0.11 kPa
521.2 K, Liquid, non-isothermal thermogravimetric | – | 2.518 ± 0.12 kPa
521.4 K, Liquid, non-isothermal thermogravimetric | – | 2.57 ± 0.11 kPa
522.5 K, Liquid, isothermal thermogravimetric | – | 2.612 ± 0.12 kPa
524.2 K, Liquid, non-isothermal thermogravimetric | – | 2.862 ± 0.11 kPa
525 K, Liquid, isothermal thermogravimetric | – | 2.943 ± 0.12 kPa and 2.941 ± 0.12 kPa
525.2 K, Liquid, non-isothermal thermogravimetric | – | 2.789 ± 0.14 kPa
525.4 K, Liquid, isothermal thermogravimetric | – | 2.995 ± 0.14 kPa
525.4 K, Liquid, non-isothermal thermogravimetric | – | 2.858 ± 0.15 kPa
525.5 K, Liquid, non-isothermal thermogravimetric | – | 2.884 ± 0.15 kPa
526.3 K, Liquid, isothermal thermogravimetric | – | 3.009 ± 0.079 kPa
528.1 K, Liquid, non-isothermal thermogravimetric | – | 3.325 ± 0.15 kPa
528.9 K, Liquid, non-isothermal thermogravimetric | – | 3.233 ± 0.13 kPa and 3.297 ± 0.14 kPa
529.2 K, Liquid, non-isothermal thermogravimetric | – | 3.322 ± 0.08 kPa
[1], 298.15 K, Crystal | 28.8 ± 1.55 kcal/mol | –
[1], 491.2 K, Crystal | 20.2 kcal/mol and 27.4 kcal/mol | –
[1], 491.2 K, Liquid | 7.03 ± 0.86 kcal/mol | –

Conditions | Normal melting temperature [°C] | molar heat capacity at constant pressure
Crystal, DTA | 218.1 ± 0.5 | –
[3], 288.2 K | – | 215.7 ± 0.9 J/K/mol and 215.8 ± 0.9 J/K/mol
[3], 290.2 K | – | 217.3 ± 1 J/K/mol and 217.5 ± 1 J/K/mol and 217.4 ± 1 J/K/mol
[3], 292.2 K | – | 219.2 ± 0.9 J/K/mol and 219.3 ± 0.9 J/K/mol and 219.4 ± 0.9 J/K/mol
[3], 294.2 K | – | 220.3 ± 0.8 J/K/mol and 220.4 ± 0.8 J/K/mol
[3], 296.2 K | – | 221.6 ± 0.8 J/K/mol and 221.5 ± 0.8 J/K/mol
[3], 298.2 K | – | 223.2 ± 1 J/K/mol and 223.1 ± 1 J/K/mol and 223 ± 1 J/K/mol
[3], 300.2 K | – | 224.5 ± 0.9 J/K/mol and 224.9 ± 0.9 J/K/mol and 224.7 ± 0.9 J/K/mol
[3], 302.2 K | – | 225.8 ± 0.8 J/K/mol and 225.7 ± 0.8 J/K/mol
[3], 304.2 K | – | 227.2 ± 0.8 J/K/mol and 227.1 ± 0.8 J/K/mol and 227 ± 0.8 J/K/mol
[3], 306.2 K | – | 228.4 ± 0.8 J/K/mol and 228.3 ± 0.8 J/K/mol
[3], 308.2 K | – | 229.6 ± 1 J/K/mol and 229.8 ± 1 J/K/mol and 229.9 ± 1 J/K/mol
[3], 310.2 K | – | 231.5 ± 0.9 J/K/mol and 231.6 ± 0.9 J/K/mol
[3], 312.2 K | – | 232.5 ± 0.8 J/K/mol and 232.3 ± 0.8 J/K/mol and 232.4 ± 0.8 J/K/mol
[3], 314.2 K | – | 234.1 ± 0.9 J/K/mol and 233.9 ± 0.9 J/K/mol and 234 ± 0.9 J/K/mol
[3], 316.2 K | – | 235.2 ± 0.9 J/K/mol and 235.3 ± 0.9 J/K/mol
[3], 318.2 K | – | 236.9 ± 1 J/K/mol and 236.7 ± 1 J/K/mol and 237 ± 1 J/K/mol
[3], 320.2 K | – | 238.5 ± 0.7 J/K/mol and 238.4 ± 0.7 J/K/mol
[3], 322.2 K | – | 239 ± 0.8 J/K/mol and 239.2 ± 0.8 J/K/mol
[3], 324.2 K | – | 240.7 ± 1 J/K/mol and 240.6 ± 1 J/K/mol and 240.5 ± 1 J/K/mol
[3], 326.2 K | – | 242.5 ± 1 J/K/mol and 242.4 ± 1 J/K/mol

Conditions | Molar enthalpy of transition or fusion [kcal/mol] | molar enthalpy [kcal/mol]
[2] | 20.2 ± 0.526 | –
[4] | – | 28.8 ± 0.478
